# Source: US8404856B2, “Non-nucleoside reverse transcriptase inhibitors” (Merck Sharp & Dohme Corp., priority 2007, dated 2013)
# Counter-ions that a name gives are not always drawn. Like-named read-outs stand apart in the source and are kept apart here.
# Assays:
# wild type HIV-1 = assay: Spread assay: inhibition of acute HIV-1 infection of T-lymphoid cells (WT); assay type: cell-based; settings: Human immunodeficiency virus 1, T-lymphoid, read-out: Spread (WT) CIC95 (10% FBS)
# Procedure: (§1) Assays for the inhibition of acute HIV-1 infection of T-lymphoid cells (alternatively referred to herein as the “spread assay”) were conducted in accordance with Vacca, J. P. et al., Proc. Natl. Acad. Sci. USA 1994, 91: 4096. The assays tested for inhibition of wild type HIV-1 and of HIV strains containing the Y181C or K103N mutation. […] Table C also reports the CIC95 values of certain of the title compounds of Examples 1-25 obtained in the assays employing the Y181C mutant strain and the K103N mutant strain.
# T-lymphoid cells = assay type: cell-based
# Procedure: Cytotoxicity was determined by microscopic examination of the cells in each well in the spread assay, wherein a trained analyst observed each culture for any of the following morphological changes as compared to the control cultures: pH imbalance, cell abnormality, cytostatic, cytopathic, or crystallization (i.e., the compound is not soluble or forms crystals in the well). The toxicity value assigned to a given compound is the lowest concentration of the compound at which one of the above changes is observed.
# [1] = target: T1, HIV reverse transcriptase with the K103N mutation (Human immunodeficiency virus type 1 group M subtype B, UniProt P04585, K690N); assay: ECL assay for inhibition of mutant HIV reverse transcriptase (K103N); assay type: biochemical, HIV-1
# T1 construct: made in house
# Procedure: (§2) 100 μL reaction mixtures were initiated with a combination of primer-template substrate (10 nM final concentration) and dNTPs (0.6 μM dNTPs, 1.25 μM BrdUTP). The heterodimeric nucleic acid substrate was generated by annealing the DNA primer pD500 (described in Shaw-Reid et al., J. Biol. Chem., 278: 2777-2780; obtained from Integrated DNA Technologies) to t500, a 500 nucleotide RNA template created by in vitro transcription (see Shaw-Reid et al., J. Biol. Chem., 278: 2777-2780). After 1 hour incubation at 37° C., reactions were quenched by 10 μL of 1 N NaOH. Microtiter plates were incubated for an additional 30 minutes at room temperature and then neutralized with 10 μL of 1 N HCl. A mixture of detection buffer containing ruthenylated anti-BrdU antibody and streptavidin coated magnetic beads were added to the plate and incubated at room temperature for 1.5 hours prior to quantification via electrochemiluminescence instrument.
# (§3) Analogous assays were conducted substituting mutant HIV strains to determine the […] inhibition of compounds of the present invention against mutant HIV reverse transcriptase. In one strain the reverse transcriptase has the Y181C mutation and in the other strain the reverse transcriptase has the K103N mutation. The mutations were generated with the […] site-directed mutagenesis kit (Stratagene).
# [2] = target: T2, HIV reverse transcriptase with the Y181C mutation (Human immunodeficiency virus type 1 group M subtype B, UniProt P04585, Y768C); assay: ECL assay for inhibition of mutant HIV reverse transcriptase (Y181C); assay type: biochemical, HIV-1
# T2 construct: made in house
# Procedure: as §2, §3
# [3] = target: HIV-1 RT enzyme (wild-type) (Human immunodeficiency virus type 1 group M subtype B, UniProt P04585); assay: ECL assay for inhibition of HIV reverse transcriptase (WT); assay type: biochemical
# Procedure: as §2
# [4] = test system: HIV strain containing the K103N mutation; assay: Spread assay: inhibition of acute HIV-1 infection of T-lymphoid cells (K103N); assay type: cell-based; settings: Human immunodeficiency virus 1, T-lymphoid, read-out: Spread (K103N) CIC95 (10% FBS)
# Procedure: as §1
# [5] = test system: HIV strain containing the Y181C mutation; assay: Spread assay: inhibition of acute HIV-1 infection of T-lymphoid cells (Y181C); assay type: cell-based; settings: Human immunodeficiency virus 1, T-lymphoid, read-out: Spread (Y181C) CIC95 (10% FBS)
# Procedure: as §1
# [6] = K103N mutant RT, read-out: ECL Assay (K103N) IC50
# [7] = Y181C mutant RT, read-out: ECL Assay (Y181C) IC50
# [8] = wild-type HIV-1 RT, read-out: ECL Assay (WT) IC50
smiles,measurement,setting,value
"N#Cc1cc(Cl)cc(Oc2cc(CCc3n[nH]c4nc(N)ccc34)[nH]c(=O)c2Cl)c1 [Compound 4-4, 3-({6-[2-(6-amino-1H-pyrazolo[3,4-b]pyridin-3-yl)ethyl]-3-chloro-2-oxo-1,2-dihydropyridin-4-yl}oxy)-5-chlorobenzonitrile]",IC95,"wild type HIV-1; wild type HIV-1, 10% FBS",39 nM
same,Cytotoxicity: no cytotoxicity at concentrations up to,T-lymphoid cells,> 833 nM
same,IC50,[1]; [6],14 nM
same,IC50,[2]; [7],7.9 nM
same,IC50,[3]; [8],1.6 nM
same,IC95,[4],0.207 µM
same,IC95,[5],0.438 µM
"N#Cc1cc(Cl)cc(Oc2c(F)c(NCc3n[nH]c4ncccc34)nc(F)c2Cl)c1 [Compound 10-4, 3-chloro-5-({3-chloro-2,5-difluoro-6-[(1H-pyrazolo[3,4-b]pyridin-3-ylmethyl)amino]pyridin-4-yl}oxy)benzonitrile]",IC95,"wild type HIV-1; wild type HIV-1, 10% FBS",28 nM
same,Cytotoxicity: no cytotoxicity at concentrations up to,T-lymphoid cells,> 833 nM
same,IC50,[1]; [6],3.2 nM
same,IC50,[2]; [7],0.6 nM
same,IC50,[3]; [8],0.5 nM
same,IC95,[4],0.062 µM
same,IC95,[5],0.046 µM
"N#Cc1cc(Cl)cc(Oc2c(C(F)(F)F)ccn(Cc3n[nH]c4ncccc34)c2=O)c1 [Compound 13-2, 3-chloro-5-{[2-oxo-1-(1H-pyrazolo[3,4-b]pyridin-3-ylmethyl)-4-(trifluoromethyl)-1,2-dihydropyridin-3-yl]oxy}benzonitrile]",IC95,"wild type HIV-1; wild type HIV-1, 10% FBS",4 nM
same,Cytotoxicity: no cytotoxicity at concentrations up to,T-lymphoid cells,> 833 nM
same,IC50,[1]; [6],2.6 nM
same,IC50,[2]; [7],2 nM
same,IC50,[3]; [8],1.6 nM
same,IC95,[4],0.006 µM
same,IC95,[5],0.008 µM
"NS(=O)(=O)c1ccc(NC(=O)Cn2ccc(C(F)(F)F)c(Oc3cc(Cl)cc(Br)c3)c2=O)c(Cl)c1 [Compound 16, N-[4-(aminosulfonyl)-2-chlorophenyl]-2-[3-(3-bromo-5-chlorophenoxy)-2-oxo-4-(trifluoromethyl)pyridin-1(2H)-yl]acetamide]",IC95,"wild type HIV-1; wild type HIV-1, 10% FBS",8 nM
same,Cytotoxicity: no cytotoxicity at concentrations up to,T-lymphoid cells,> 833 nM
same,IC50,[1]; [6],2.8 nM
same,IC50,[2]; [7],2.6 nM
same,IC50,[3]; [8],1.9 nM
same,IC95,[4],0.021 µM
same,IC95,[5],0.03 µM
"N#Cc1cc(Cl)cc(Oc2c(C(F)(F)F)ccn(Cc3n[nH]c4nc(N)ccc34)c2=O)c1 [Compound 17-2, 3-{[3-(3-chloro-5-cyanophenoxy)-2-oxo-4-(trifluoromethyl)pyridin-1(2H)-yl]methyl}-1H-pyrazolo[3,4-b]pyridin-6-aminium trifluoroacetate]",IC95,wild type HIV-1,6 nM
same,Cytotoxicity: no cytotoxicity at concentrations up to,T-lymphoid cells,> 833 nM
same,IC50,[1],3.1 nM
same,IC50,[2],2.4 nM
same,IC50,[3],1.9 nM
same,IC95,[4],0.011 µM
same,IC95,[5],0.042 µM
"N#Cc1cc(C#N)cc(Oc2c(C(F)(F)F)ccn(Cc3n[nH]c4ncccc34)c2=O)c1 [Compound 18-4, 5-{[2-oxo-1-(1H-pyrazolo[3,4-b]pyridine-3-ylmethyl)-4-(trifluoromethyl)-1,2-dihydropyridin-3-yl]oxy}isophthalonitrile]",IC95,"wild type HIV-1; wild type HIV-1, 10% FBS",7 nM
same,Cytotoxicity: no cytotoxicity at concentrations up to,T-lymphoid cells,> 833 nM
same,IC50,[1]; [6],5.1 nM
same,IC50,[2]; [7],4.1 nM
same,IC50,[3]; [8],3.4 nM
same,IC95,[4],0.006 µM
same,IC95,[5],0.008 µM
"O=c1c(Oc2cc(Cl)cc(Cl)c2)c(C(F)(F)F)ccn1Cc1n[nH]c2ncccc12 [Compound 19-4, 3-(3,5-dichlorophenoxy)-1-(1H-pyrazolo[3,4-b]pyridin-3-ylmethyl)-4-(trifluoromethyl)pyridin-2(1H)-one]",IC95,"wild type HIV-1; wild type HIV-1, 10% FBS",9 nM
same,Cytotoxicity: no cytotoxicity at concentrations up to,T-lymphoid cells,> 833 nM
same,IC50,[1]; [6],2.1 nM
same,IC50,[2]; [7],1.5 nM
same,IC50,[3]; [8],1.1 nM
same,IC95,[4],0.021 µM
same,IC95,[5],0.048 µM
"Cl.Nc1ccc2c(Cn3ccc(C(F)(F)F)c(Oc4cc(Cl)cc(Cl)c4)c3=O)n[nH]c2n1 [Compound 20-3, 3-{[3-(3,5-dichlorophenoxy)-2-oxo-4-(trifluoromethyl)pyridin-1(2H)-yl]methyl}-1H-pyrazolo[3,4-b]pyridin-6-aminium chloride]",IC95,"wild type HIV-1; wild type HIV-1, 10% FBS",20 nM
same,Cytotoxicity: no cytotoxicity at concentrations up to,T-lymphoid cells,> 833 nM
same,IC50,[1],5.9 nM
same,IC50,[2],1.6 nM
same,IC50,[3],1.6 nM
same,IC95,[4],0.087 µM
same,IC95,[5],0.169 µM
"N#Cc1cc(Cl)cc(Oc2c(Cl)ccn(Cc3n[nH]c4nc(N)ccc34)c2=O)c1.O=C(O)C(F)(F)F [Compound 22, 3-({1-[(6-amino-1H-pyrazolo[3,4-b]pyridin-3-yl)methyl]-4-chloro-2-oxo-1,2-dihydropyridin-3-yl}oxy)-5-chlorobenzonitrile trifluoroacetate]",IC95,"wild type HIV-1; wild type HIV-1, 10% FBS",2 nM
same,Cytotoxicity: no cytotoxicity at concentrations up to,T-lymphoid cells,> 833 nM
same,IC50,[1],2.1 nM
same,IC50,[2],1.8 nM
same,IC50,[3],1.3 nM
same,IC95,[4],0.007 µM
same,IC95,[5],0.063 µM
"N#Cc1cc(Cl)cc(Oc2c(Cl)c(Cl)cn(Cc3n[nH]c4ncccc34)c2=O)c1 [Compound 23-2, 3-chloro-5-{[4,5-dichloro-2-oxo-1-(1H-pyrazolo[3,4-b]pyridin-3-ylmethyl)-1,2-dihydropyridin-3-yl]oxy}benzonitrile]",IC95,"wild type HIV-1; wild type HIV-1, 10% FBS",5 nM
same,Cytotoxicity: no cytotoxicity at concentrations up to,T-lymphoid cells,> 833 nM
same,IC50,[1]; [6],1.6 nM
same,IC50,[2]; [7],1.3 nM
same,IC50,[3]; [8],0.96 nM
same,IC95,[4],0.011 µM
same,IC95,[5],0.015 µM
"N#Cc1cc(Cl)cc(Oc2cc(Cc3n[nH]c4ncccc34)[nH]c(=O)c2Cl)c1 [Compound 24-7, 3-Chloro-5-{[3-chloro-2-oxo-6-(1H-pyrazolo[3,4-b]pyridin-3-ylmethyl)-1,2-dihydropyridin-4-yl]oxy}benzonitrile]",IC95,"wild type HIV-1; wild type HIV-1, 10% FBS",2.4 nM
same,Cytotoxicity: no cytotoxicity at concentrations up to,T-lymphoid cells,> 833 nM
same,IC50,[1]; [6],1.7 nM
same,IC50,[2]; [7],1 nM
same,IC50,[3]; [8],0.9 nM
same,IC95,[4],0.013 µM
same,IC95,[5],0.0066 µM
